Where two headings read alike, the source gives them in different places. Each block holds one compound with its values, some of them ahead of it.
Key:
Assay in all cases: inhibition of BnzGlcA hydrolysis, coupled K-URONIC assay
Assay type in all cases: biochemical
TtCE15A [1] = target: T1, TtCE15A (Teredinibacter turnerae, UniProt C5BN23)
T1 construct: gene TERTU_0517
Description: (§1) inhibition of BnzGlcA hydrolysis, coupled K-URONIC assay on TtCE15A

TtCE15A [2] = target: T2, TtCE15A (Teredinibacter turnerae, UniProt C5BN23, F174A)
T2 construct: gene TERTU_0517
Description: as §1

TtCE15A [3] = target: T3, TtCE15A (Teredinibacter turnerae, UniProt C5BN23, F174D)
T3 construct: gene TERTU_0517
Description: as §1

T2 sequence (C5BN23 entry or part of it F174A): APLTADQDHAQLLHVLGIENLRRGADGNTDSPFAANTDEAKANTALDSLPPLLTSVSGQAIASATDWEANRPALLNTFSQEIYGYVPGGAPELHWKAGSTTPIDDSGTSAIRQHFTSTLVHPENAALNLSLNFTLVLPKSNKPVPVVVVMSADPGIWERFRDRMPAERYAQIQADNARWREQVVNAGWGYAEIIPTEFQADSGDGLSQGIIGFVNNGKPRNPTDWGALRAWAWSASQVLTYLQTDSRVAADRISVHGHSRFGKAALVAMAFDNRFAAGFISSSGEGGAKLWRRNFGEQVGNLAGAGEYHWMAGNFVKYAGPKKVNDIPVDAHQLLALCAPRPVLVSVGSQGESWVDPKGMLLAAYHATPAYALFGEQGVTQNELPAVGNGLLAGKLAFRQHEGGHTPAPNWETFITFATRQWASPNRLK
T1 sequence (C5BN23 entry or part of it): as the sequence (C5BN23 entry or part of it F174A) above, with A152F counted along it
T3 sequence (C5BN23 entry or part of it F174D): as the sequence (C5BN23 entry or part of it F174A) above, with A152D counted along it

IC50 (TtCE15A [1]; read-out: FA): 550 ± 45 µM
IC50 (TtCE15A [2]; read-out: FA): 84 ± 5 µM
IC50 (TtCE15A [3]; read-out: FA): 400 ± 40 µM
Structure (SMILES): COc1cc(/C=C/C(=O)O)ccc1O [FA, ferulic acid]

IC50 (TtCE15A [1]; 0.4 mM BnzGlcA, pH 7.5, <10% DMSO, read-out: XUXXR): 5510 ± 280 µM
Structure (SMILES): CO[C@@H]1C(C(=O)O)O[C@H](O[C@H]2[C@H](O[C@@H]3CO[C@@H](O[C@H](CO)[C@H](O)[C@@H](O)CO)[C@H](O)[C@H]3O)OC[C@@H](O[C@@H]3OC[C@@H](O)[C@H](O)[C@H]3O)[C@@H]2O)[C@H](O)[C@H]1O (stereo partly drawn) [XUXXR, 2^3-(4-O-methyl-D-glucuronyl)-α-D-xylotetraitol]

IC50 (TtCE15A [1]; read-out: SA): 560 ± 30 µM
IC50 (TtCE15A [2]; read-out: SA): 190 ± 22 µM
IC50 (TtCE15A [3]; read-out: SA): 770 ± 64 µM
Structure (SMILES): COc1cc(/C=C/C(=O)O)cc(OC)c1O [SA, sinapic acid]

IC50 (TtCE15A [1]; read-out: pCoA): 830 ± 40 µM
IC50 (TtCE15A [2]; read-out: pCoA): 4840 ± 470 µM
Structure (SMILES): O=C(O)/C=C/c1ccc(O)cc1 [pCoA, p-coumaric acid]
